The subject of series [1] is ROS generation in human PMNL. The experiment in a line: Inhibition of luminol-dependent chemiluminescence (ROS generation) in PMA-activated human PMNL. Format: cell-based. Conditions: for IC50: 0.1 μM PMA. On the procedure:
Background to the assay: One of the most important events involved in the intracellular cascade leading to NF-kB activation is the generation of oxidative stress and the increase of ROS; the inhibition of these species can contribute to reduce the direct damage to DNA and subsequent clonogenic cell death, and also to diminish the transcription factors activation. The effect of compound 1.1 on luminol-dependent chemiluminescence assay was assessed in human PMNL.
Human neutrophils were obtained from healthy volunteers. Blood was anti-coagulated with Na-Citrate 0.38% and neutrophils were purified according to Boyum (Boyum A. Scand J Clin Invest 1968;21:77-89). The neutrophil purification was achieved by gradient centrifugation on Histo-paque at 400 g for 30 min. Resulting neutrophils were suspended in PBS plus 0.87 mM CaCl2, 1 mM MgCl2, counted, and diluted to 2.5×10^6/ml. Neutrophil suspension was premixed with luminol (5 μM final). A 200 μl-aliquot of cell suspension was incubated into a 96-well plate, with drugs for 10 min at 37° C. Neutrophils were activated with 0.1 μM phorbol 12-myristate 13-acetate (PMA) and the light emission was monitored at 3 min intervals for 24 min in a HTS7000 plus microplate reader. Results were expressed as reduction of the fluorescent signal recorded for cell activated with PMA alone.
Activation of neutrophils with 0.1 μM PMA induced a time-dependent increase in signal luminescence, with a maximal increase within 10-12 min. […] The data are illustrated in FIG. 1.

The test system of the next series is IL-1β. Nature of the series: LPS-induced IL-1β release in rat peritoneal macrophages. It counts as cell-based. Conditions: LPS 1 μg/ml, 24 h. The text has this: (§1) Background to the assay: Nuclear factor-κB (NF-κB), a key element in the genesis of mucositis, has the capacity to upregulate a large panel of genes, including those that result in the production of pro-inflammatory cytokines, TNFα, IL-1 and IL-6, all leading to apoptosis and tissue injury, and to up-regulate genes that can cause the expression of iNOS and cyclooxygnase-2. The third phase of mucositis is indeed characterized by the amplification of signaling triggered by pro-inflammatory cytokines. The effect of compound 1.1 was assessed in rat peritoneal macrophages.
(§2) Primary cell cultures were obtained from male albino rats (SD, 200-250 g, Harlan, Italy), as described in Methods in Enzymology (Methods in Enzymology, vol. LVIII, pages 494-506). Cells were stimulated, the day after plating, with LPS, 1 μg/ml or 0.1 μg/ml as stated, for 24 h. Compounds were added 20 min before stimulation. The stimulation was performed in DMEM, 1 g/l glucose, 50 μg/ml gentamicin. Supernatants and cell lysates were collected and stored at −80° C. until use. Cytokine quantisation in supernatants was determined by means of commercially available ELISA Kits for rat TNFα, rat IL-1β and rat IL-6 (Amersham).
(§3) Activation of macrophages with 1 μg/ml LPS induced an increase over basal in cytokine production.

The next series has as its system IL-6. The experiment in a line: LPS-induced IL-6 release in rat peritoneal macrophages. Conditions: LPS 1 μg/ml, 24 h. It counts as cell-based.
Source text: as §1, §2, §3

The subject of another series is TNFα. Nature of the series: LPS-induced TNFα release in rat peritoneal macrophages. Conditions: LPS 1 μg/ml, 24 h. It counts as cell-based.
Source text: as §1, §2, §3

The subject of a further series is iNOs protein expression. The experiment in a line: LPS-induced iNOS protein expression in rat macrophages (Western blot). It counts as cell-based. The conditions noted are these: 30 μM; LPS 0.1 μg/ml, 24 h. Here is the method:
as §2
(§4) Western blot analysis of iNOS and COX-2: Cell lysates were analyzed by SDS-PAGE. Proteins were transferred onto PVDF membranes and saturated in blocking buffer. Membranes were incubated for 2 h at RT with the following antibodies: anti-COX-2, anti-iNOS, anti-β-actin and further incubated with a secondary antibody for 45 min at RT. Detection was performed using ECL (Amersham). Quantisation was determined by densitometry analysis using NIH Image software.
(§5) Evaluation of mediator of inflammation such as iNOS and COX-2, was performed in macrophages stimulated with 0.1 μg/ml LPS for 24 h. […]
On the technique in general: Immunoblotting shows a protein as a band on a membrane.

The next series concerns COX-2 protein expression. Nature of the series: LPS-induced COX-2 protein expression in rat macrophages (Western blot). Format: cell-based. The conditions noted are these: 30 μM; LPS 0.1 μg/ml, 24 h. On the procedure:
as §2, §4, §5

A further series deals with rat gastric mucosa. The experiment in a line: Gastric ulcer induced by indomethacin in rat. It counts as in vivo. The source says:
Indomethacin induces the formation of acute gastric mucosal lesions. The histologic damage is represented by necrosis with loss of surface epithelium, submucosal oedema and leukocyte infiltration. The mechanism involves a neutrophil-dependent process inducing a variety of inflammatory mediators such as reactive oxygen species, and direct detrimental action by indomethacin on processes linked to epithelial proliferation and apoptosis. The epithelial repairing process is due to continuity of epithelial cells with healthy cells of gastric pits that can migrate to the basement membrane; re-epithelialization and reconstruction of the mucosal architecture is under the control of growth factors produced locally by regenerating cells.
20 male SD rats (140-160) were used. The animals were deprived of food but not water 24 hours prior the experiment. Gastric ulcer was induced in conscious rats by oral administration of 10 mg/kg/4 ml of indomethacin, suspended in methylcellulose 0.5%. The tested drug was administered 30 min by gavage (os), or 15 min by subcutaneously (sc), before indomethacin.
Four hours after indomethacin administration, the animals were sacrificed by excess of ether. The stomach was dissected out, opened along the greater curvature, and the mucosa was examined by an observer who was unaware of the treatment given. The extent of ulcers was measured with a 10× binocular fitted with a 0.1 mm-division scale. Data are presented as total length of ulcers per group.
The animals were divided into 4 groups of 5 animals, and were treated as follows:
Groups: • 1. 10 mg/kg Compound 1.1, administered prior to 10 mg/kg indomethacin, os. • 2. 5 mg/kg Compound 1.1, administered prior to 10 mg/kg indomethacin, os. • 3. 1 mg/kg Compound 1.1, administered prior to 10 mg/kg indomethacin, os. • 4. vehicle, administered prior to 10 mg/kg indomethacin, os.
Compound 1.1 was given at 1, 5 and 10 mg/kg prior to indomethacin. […] In Compound 1.1 treated groups the levels of ulcerated animals decreased dose-dependently.

Series [2] deals with clonogenic crypt cells of the small intestine. The experiment in a line: Mouse mucositis model (clonogenic crypt cell death induced by whole body irradiation). It counts as in vivo. Conditions: for crypt width (μm) / no. crypts/circumference: average +/− sd; for corrected crypts/circumference: corrected for crypt width. The text has this: There are thought to be between four and sixteen actual stem cells in each crypt of the small intestine. There are also a further reserve of clonogenic cells which are capable of regenerating the crypt when all the actual stem cells have been killed. The survival of these clonogenic cells is therefore key to the survival of the crypt and the restoration of an intact epithelial lining following cytotoxic injury (only one clonogenic cell needs to survive to ensure the survival of the crypt, and therefore the maintenance of an intact epithelium). Growth factors and other molecules can be used to manipulate the sensitivity of these cells to cytotoxic agents, and thereby reduce the severity of gastrointestinal and oral mucositis. Factors given prior to a cytotoxic insult may increase clonogenic cell number (thereby increasing the probability of clonogen survival) or act to arrest the cell cycle in such cells (thereby making them more resistant to damage or death). […] A combination of both protocols could give maximum protection to the epithelium.
The effects of administration for 3 days before radiation exposure were tested.
30 adult male BDF1 mice (aged 10-12 weeks) were used. The animals were housed for 2 weeks in individually ventilated cages on a 12 hr light:dark cycle to stabilize the circadian rhythm. Animals were allowed food and water ad libitum throughout.
The animals were divided into 5 groups of 6 animals, and were treated as follows:
Groups: • 1. Gavage 20 mg/kg Compound 1.1 72, 48 and 24 hrs prior to 13Gy X-ray exposure (whole body). • 2. Gavage 10 mg/kg Compound 1.1 72, 48 and 24 hrs prior to 13Gy X-ray exposure (whole body). • 3. Gavage 5 mg/kg Compound 1.1 72, 48 and 24 hrs prior to 13Gy X-ray exposure (whole body). • 4. Gavage vehicle 72, 48 and 24 hrs prior to 13Gy X-ray exposure (whole body). • 5. Untreated, un-irradiated controls.
Intestinal damage was induced using a single dose of 13Gy X-irradiation. Four days after irradiation the animals were sacrificed. The small intestine was removed and fixed in Carnoy's fixative prior to processing for histological analysis. 3 μm sections were cut and stained with haematoxylin and eosin. Foci of regeneration (surviving crypts with one or more clonogenic cells) were clearly visible in the irradiated sections. Other than these foci the mesenchyme was entirely denuded; these animals would develop diarrhea and die due to mucositis if allowed to live beyond four days.
For each animal ten intestinal circumferences were analyzed (60 per group)—a circumference is equivalent to a given length of intestine and therefore a convenient baseline unit of length. The number of surviving crypts per circumference was scored and the average per group determined. Only crypts containing 10 or more strongly haematoxylin and eosin stained cells (excluding Paneth cells) and only intact circumferences not containing Peyers patches were scored (Peyers patches influence both the number of crypts in a normal circumference and the ability of a crypt to survive insult).
The average crypt width (measured at its widest point) was also measured in order to correct for scoring errors due to crypt size difference. The correction is applied thus: Corrected number of crypts/circumference=

For series [3] the following is noted: 25° C.
The mark [4] stands for this setting: 5 mg/kg, both administration protocols (os, sc).
[5] abbreviates: 5 mg/kg gavage for 3 days pre 13Gy irradiation.
Setting [6] is: 10 mg/kg gavage for 3 days pre 13Gy irradiation.
The mark [7] stands for this setting: 20 mg/kg gavage for 3 days pre 13Gy irradiation.

Where “and” joins values, the source holds several entries; their conditions need not be identical. Equal entries are not always repeated. Where two headings read alike, the source gives them in different places. A value given as a limit tells only on which side of the number the result lay.

The IC50 is the concentration at which inhibition is half-maximal.

For the molecule `CCCCCNC(=S)Nc1ccc(NC(C)=N)cc1` [Compound 1.1, N-[4-(N-acetamidine)phenyl]-N′-pentyl thiourea], the “% of inhibition of chemiluminescence” value in series [1] (1 μM) came to 20%. For the same molecule, the “Inhibition of ROS generation” value in [1] (30 μM (data not shown)) is reported as “completely inhibited ROS generation”. Moreover, the concentration for half-maximal inhibition (IC50) in series [1] (rising phase, at 15 min, read-out: IC50 luminol-enhanced chemiluminescence, rising phase) is 6.4 ± 0.6 µM; in series [1] (steady phase, at 24 min, read-out: IC50 luminol-enhanced chemiluminescence, steady phase), 2.9 ± 0.2 µM; in the series with IL-1β, 30 µM; in the series with IL-6, 63 µM; with TNFα, 54 µM. For the same molecule, the “% of inhibition iNOs protein expression” value with iNOs protein expression was found to be 79%. The “% of inhibition COX-2 protein expression” value with COX-2 protein expression was determined as 53%. Further, the “Effectiveness against ulcer at the lower dose” value in the series with rat gastric mucosa (1 mg/kg) is on record as “effective only in the os protocol administration”. The “Reduction of extent of ulceration” value with rat gastric mucosa (5 mg/kg) was 80-90%. Moreover, in the series with rat gastric mucosa (setting [4]), the “Incidence of ulcer (animals per group)” value is recorded as 3/5. Besides, in the series on rat gastric mucosa (setting [4]), the “Incidence of ulcer reduced to” value was ~50%. Also, the “Ulcerated animals (maximal effect)” value in the series with rat gastric mucosa (10 mg/kg prior to 10 mg/kg indomethacin) is listed as “no animals ulcerated”. The “Survival and adverse effects” value in the series on rat gastric mucosa (rat, 1, 5 and 10 mg/kg) is reported as “no obvious adverse effects”; in series [2] (mouse, 5, 10 and 20 mg/kg), “no obvious adverse effects”. The results for the “crypt width (μm)” value in series [2] (setting [5]), in series [2] (setting [6]) and in [2] (setting [7]) were 68.54 +/− 6.6 μm, 68.25 +/− 2.4 μm and 66.19 +/− 3.0 μm, respectively. Moreover, the no. crypts/circumference in [2] (setting [5]) is recorded as 9.6 +/− 3.4; in series [2] (setting [6]), 9.2 +/− 4.7; in series [2] (setting [7]), 13.2 +/− 5.7. Moreover, the corrected crypts/circumference is 4.7 +/− 1.3 in [2] (setting [5]); 4.5 +/− 2.4 in series [2] (setting [6]); 6.7±3.0 and 6.7 +/− 3.0 in series [2] (setting [7]). Moreover, the “Increase of crypt survival versus vehicle” value in series [2] (20 mg/kg) was 1.9 ×; in series [2] (lower doses (5 and 10 mg/kg)) it was “about 1.3 times”. In series [2] (20 mg/kg, 4% of circumference in vehicle treated mouse), the “Circumferences without surviving crypt” value is listed as “prevented the absence of surviving crypt”.

As for `CCCCCNC(=S)Nc1ccc(NC(C)=N)cc1.O=C(O)/C=C\C(=O)O` [Maleate, N-[4-(N-acetamidine)phenyl]-N′-pentyl thiourea maleate], in series [3], the “Solubility in water” value came out at 3.12 mg/mL and the “Solubility in water (%)” value amounted to 0.31%.

Take `CCCCCNC(=S)Nc1ccc(NC(C)=N)cc1.CS(=O)(=O)O` [Methanesulphonate, N-[4-(N-acetamidine)phenyl]-N′-pentyl thiourea methanesulphonate]: in [3], the “Solubility in water” value is >32 mg/mL and the “Solubility in water (%)” value is recorded as >32%.

Source of the values: patent US20080194877A1, “Benzamidine Derivatives for Treatment and Prevention of Cancer Therapy Induced Mucositis” ([…].p.A., priority 2005, published 2008).
